Target: T1, SCD-1 (Homo sapiens, UniProt O00767)
T1 construct: 50 μg of protein from a HepG2 cell P2 pellet; endogenous in cells; host or cells: HepG2 cells (P2 pellet)
T1 sequence (O00767 1-359): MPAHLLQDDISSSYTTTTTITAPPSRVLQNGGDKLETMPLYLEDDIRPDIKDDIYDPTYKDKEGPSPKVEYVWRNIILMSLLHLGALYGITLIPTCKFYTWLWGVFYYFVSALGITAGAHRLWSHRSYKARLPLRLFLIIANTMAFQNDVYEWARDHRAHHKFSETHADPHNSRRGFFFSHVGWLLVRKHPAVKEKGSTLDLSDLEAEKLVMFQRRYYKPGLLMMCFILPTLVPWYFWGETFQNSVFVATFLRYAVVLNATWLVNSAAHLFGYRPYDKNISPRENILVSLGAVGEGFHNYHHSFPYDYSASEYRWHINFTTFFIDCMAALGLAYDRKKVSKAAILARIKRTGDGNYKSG
Assay: Stearoyl-CoA desaturase assay (HepG2 cell P2 pellet)
Type: biochemical
Details: Table 1, compounds of formula (Ia); protein from HepG2 cell P2 pellet, 20 μM stearoyl-CoA, 15 min at 25° C.; read-out: Ave IC50
Method: Stearoyl-CoA desaturase assays were performed in according to Talamo and Bloch. […] Assays were run in triplicate in 100-μl volumes of 100 mM TrisHCl, pH 7.3, containing 20 μM stearoyl-CoA, 2 mM β-NADH, and 50 μg of protein from a HepG2 cell P2 pellet. Since SCD-1 is the only isoform of SCD expressed in these cells, the assay is specific for SCD-1 with these cells as the source of enzyme. Reaction mixtures were incubated fifteen minutes at 25° C. and reactions were then stopped with a volume of trichloroacetic acid giving a final concentration of 0.2%. After five minutes, a 90-μl volume was transferred to a Millipore Multiscreen HTS 96-well filtration plate (MSHVN4B50) containing 125 μl of 10% charcoal in each well, to which vacuum had been previously applied. Plates were shaken fifteen minutes and then filtered into a collection plate. Fifty-μI volumes of filtrate were transferred to another plate containing 150 μl of MicroScint 40 for counting on a TopCount scintillation counter.

Row | Compound | IC50 [nM]
1 | CC(=O)NCC(=O)N1CCC2(CC1)CCN(Cc1ccc(F)cc1)c1ccccc1O2 [Compound 27] | 50 to 499
2 | CC(=O)NCC(=O)N1CCC2(CC1)CCN(Cc1cccc(O)c1)c1ccccc1O2 [Compound 32] | 500 to 10000
3 | CC(=O)NCC(=O)N1CCC2(CC1)CCN(Cc1ccc(C)cc1)c1ccccc1O2 [Compound 35] | 500 to 10000
4 | CC(=O)NCC(=O)N1CCC2(CC1)CCN(Cc1ccc(Cl)s1)c1ccccc1O2 [Compound 33] | 500 to 10000
5 | CC(=O)NCC(=O)N1CCC2(CC1)CCN(Cc1ccccc1C)c1ccccc1O2 [Compound 41] | 500 to 10000
6 | CC(=O)NCC(=O)N1CCC2(CC1)CCN(Cc1ccc(Br)cc1)c1ccccc1O2 [Compound 40] | 500 to 10000
7 | COC(=O)c1cccc(CN2CCC3(CCN(C(=O)CNC(C)=O)CC3)Oc3ccccc32)c1 [Compound 25] | 500 to 10000
8 | CCc1ccc(CN2CCC3(CCN(C(=O)CNC(=O)C[C@@H](C)O)CC3)Oc3ccccc32)cc1 [Compound 8] | 500 to 10000
9 | CC(=O)NCC(=O)N1CCC2(CC1)CCN(Cc1ccccc1)c1ccccc1O2 [Compound 30] | 500 to 10000
10 | CC(=O)NCC(=O)N1CCC2(CC1)CCN(Cc1ccccc1F)c1ccccc1O2 [Compound 19] | > 10000
11 | CCc1ccc(CN2CCC3(CCN(C(=O)CNC(=O)CCN(C)C)CC3)Oc3ccccc32)cc1 [Compound 9] | > 10000
12 | CC(=O)NCC(=O)N1CCC2(CC1)CCN(Cc1ccccc1Br)c1ccccc1O2 [Compound 37] | 500 to 10000
13 | CC(=O)NCC(=O)N1CCC2(CC1)CCN(Cc1ccc(Br)s1)c1ccccc1O2 [Compound 34] | 500 to 10000
14 | CCc1ccc(CN2CCC3(CCN(C(=O)[C@@H](C)NC(C)=O)CC3)Oc3ccccc32)cc1 [Compound 4] | 500 to 10000
15 | CC(=O)NCC(=O)N1CCC2(CC1)CCN(Cc1cccc(C(F)(F)F)c1)c1cccc(F)c1O2 [Compound 45] | 500 to 10000
16 | CC(=O)NCC(=O)N1CCC2(CC1)CCN(Cc1ccc(OC(C)(C)C)cc1)c1ccccc1O2 [Compound 18] | > 10000
17 | CCc1ccc(CN2CCC3(CCN(C(=O)CNC(=O)Cc4cn(C)cn4)CC3)Oc3ccccc32)cc1 [Compound 11] | 500 to 10000
18 | CC(=O)NCC(=O)N1CCC2(CC1)CCN(Cc1cccc(F)c1)c1ccccc1O2 [Compound 29] | 500 to 10000
19 | CCc1ccc(CN2CCC3(CCN(C(=O)C(CO)NC(C)=O)CC3)Oc3ccccc32)cc1 (stereo not drawn) [Compound 2] | > 10000

Same assay, conditions: Table 2, compounds of formula (Ib); protein from HepG2 cell P2 pellet, 20 μM stearoyl-CoA, 15 min at 25° C.; read-out: Ave IC50

Row | Compound | IC50 [nM]
20 | NC(=O)c1cnc(N2CCC3(CC2)CCN(Cc2cccc(C(F)(F)F)c2)c2ccccc2O3)s1 [Compound 52] | 0.5 to 49
21 | CCNC(=O)c1cnc(N2CCC3(CC2)CCN(Cc2ccc(C(C)(C)C)cc2)c2ccccc2O3)s1 [Compound 68] | 0.5 to 49
22 | CC(C)(C)c1ccc(CN2CCC3(CCN(c4ncc(C(=O)O)s4)CC3)Oc3c(F)cccc32)cc1 [Compound 74] | 0.5 to 49
23 | C[S+]([O-])CCNC(=O)c1cnc(N2CCC3(CC2)CCN(Cc2ccc(C(C)(C)C)cc2)c2cccc(F)c2O3)s1 (stereo not drawn) [Compound 93] | 50 to 499
24 | CC(C)(C)c1ccc(CN2CCC3(CCN(c4ncc(-c5cncnc5)s4)CC3)Oc3ccccc32)cc1 [Compound 135] | 50 to 499
25 | COC(=O)c1cnc(N2CCC3(CC2)CCN(Cc2cccc(C(F)(F)F)c2)c2ccccc2O3)s1 [Compound 50, methyl 2-(5-(3-(trifluoromethyl)benzyl)-4,5-dihydro-3H-spiro[benzo[b][1,4]oxazepine-2,4′-piperidine]-1′-yl)thiazole-5-carboxylate] | 0.5 to 49
26 | CC(C)(C)CCNC(=O)c1cnc(N2CCC3(CC2)CCN(Cc2ccc(C(C)(C)C)cc2)c2cccc(F)c2O3)s1 [Compound 122] | > 10000
27 | CC(C)(C)c1ccc(CN2CCC3(CCN(c4ncc(C(=O)NC[C@H]5CC[C@H](O)C5)s4)CC3)Oc3c(F)cccc32)cc1 [Compound 82] | > 10000
28 | CC(C)(C)c1ccc(CN2CCC3(CCN(c4ncc(C(=O)O)s4)CC3)Oc3ccccc32)cc1 [Compound 64] | 50 to 499
29 | CNC(=O)c1cnc(N2CCC3(CC2)CCN(Cc2cccc(C(F)(F)F)c2)c2ccccc2O3)s1 [Compound 58, N-methyl-2-(5-(3-(trifluoromethyl)benzyl)-4,5-dihydro-3H-spiro[benzo[b][1,4]oxazepine-2,4′-piperidine]-1′-yl)thiazole-5-carboxamide] | 0.5 to 49
30 | Cn1cncc1CNC(=O)c1cnc(N2CCC3(CC2)CCN(Cc2ccc(C(C)(C)C)cc2)c2cccc(F)c2O3)s1 [Compound 121] | > 10000
31 | Cc1n[nH]c(C)c1CCNC(=O)c1cnc(N2CCC3(CC2)CCN(Cc2ccc(C(C)(C)C)cc2)c2cccc(F)c2O3)s1 [Compound 100] | > 10000
32 | CC(C)(C)c1ccc(CN2CCC3(CCN(c4ncc(C(=O)N5CCCC5)s4)CC3)Oc3ccccc32)cc1 [Compound 72] | 500 to 10000
33 | C[C@H](O)CNC(=O)c1cnc(N2CCC3(CC2)CCN(Cc2ccc(C(C)(C)C)cc2)c2cccc(F)c2O3)s1 [Compound 110] | 0.5 to 49
34 | O=C(c1cnc(N2CCC3(CC2)CCN(Cc2cccc(C(F)(F)F)c2)c2ccccc2O3)s1)N1CCCC1 [Compound 56] | 500 to 10000
35 | CC(C)(C)c1ccc(CN2CCC3(CCN(c4ncc(C(=O)NCCCCCC(=O)O)s4)CC3)Oc3c(F)cccc32)cc1 [Compound 124] | 500 to 10000
36 | O=C(O)c1cnc(N2CCC3(CC2)CCN(Cc2cccc(C(F)(F)F)c2)c2ccccc2O3)s1 [Compound 54, 2-(5-(3-(trifluoromethyl)benzyl)-4,5-dihydro-3H-spiro[benzo[b][1,4]oxazepine-2,4′-piperidine]-1′-yl)thiazole-5-carboxylic Acid] | 0.5 to 49
37 | CCN(C)C(=O)c1cnc(N2CCC3(CC2)CCN(Cc2ccc(C(C)(C)C)cc2)c2ccccc2O3)s1 [Compound 66] | 50 to 499
38 | O=C(O)CCNC(=O)c1cnc(N2CCC3(CC2)CCN(Cc2cccc(C(F)(F)F)c2)c2cccc(F)c2O3)s1 [Compound 133] | 0.5 to 49
39 | CC(C)(C)c1ccc(CN2CCC3(CCN(c4ncc(C(=O)NCCc5cccs5)s4)CC3)Oc3c(F)cccc32)cc1 [Compound 83] | 500 to 10000
40 | Cc1ccc(CNC(=O)c2cnc(N3CCC4(CC3)CCN(Cc3ccc(C(C)(C)C)cc3)c3cccc(F)c3O4)s2)o1 [Compound 104] | 50 to 499
41 | CC(C)(C)c1ccc(CN2CCC3(CCN(c4ncc(C(=O)NCc5ccccc5F)s4)CC3)Oc3c(F)cccc32)cc1 [Compound 87] | 50 to 499
42 | O=C(O)CCNC(=O)c1cnc(N2CCC3(CC2)CCN(Cc2cccc(C(F)(F)F)c2)c2ccccc2O3)s1 [Compound 129] | 0.5 to 49
43 | FC(F)(F)c1cccc(CN2CCC3(CCN(c4ncc(Br)s4)CC3)Oc3ccccc32)c1 [Compound 53] | 500 to 10000
44 | N#Cc1cnc(N2CCC3(CC2)CCN(Cc2cccc(C(F)(F)F)c2)c2ccccc2O3)s1 [Compound 127] | 0.5 to 49

Same assay, conditions: Table 3, compounds of formula (Ic); protein from HepG2 cell P2 pellet, 20 μM stearoyl-CoA, 15 min at 25° C.; read-out: Ave IC50

Row | Compound | IC50 [nM]
45 | CC(C)(C)CCNC(=O)c1ccc(N2CCC3(CC2)CCN(Cc2cccc(C(F)(F)F)c2)c2ccccc2O3)nn1 [Compound 159] | 500 to 10000
46 | CC(C)(C)c1ccc(CN2CCC3(CCN(c4ccc(C(=O)O)cn4)CC3)Oc3c(F)cccc32)cc1 [Compound 145] | 50 to 499
47 | CC(C)CNC(=O)c1ccc(N2CCC3(CC2)CCN(Cc2cccc(C(F)(F)F)c2)c2ccccc2O3)nn1 [Compound 158] | 50 to 499
48 | O=C(O)c1ccc(N2CCC3(CC2)CCN(Cc2cccc(C(F)(F)F)c2)c2ccccc2O3)nn1 [Compound 172, 6-(5-(3-(trifluoromethyl)benzyl)-4,5-dihydro-3H-spiro[benzo-[b][1,4]oxazepine-2,4′-piperidine]-1′-yl)pyridazine-3-carboxylic Acid] | 500 to 10000
49 | CC(C)(C)c1ccc(CN2CCC3(CCN(c4ccc(C(=O)NCCC5CC5)nn4)CC3)Oc3ccccc32)cc1 [Compound 140] | 0.5 to 49
50 | CCNC(=O)c1ccc(N2CCC3(CC2)CCN(Cc2cccc(C(F)(F)F)c2)c2ccccc2O3)nn1 [Compound 167] | 50 to 499
51 | O=C(NCCC1CC1)c1ccc(N2CCC3(CC2)CCN(Cc2cccc(C(F)(F)F)c2)c2ccccc2O3)nn1 [Compound 151] | 0.5 to 49
52 | CC(C)CCNC(=O)c1ccc(N2CCC3(CC2)CCN(Cc2cccc(C(F)(F)F)c2)c2ccccc2O3)nn1 [Compound 160] | 50 to 499
53 | COC(=O)c1ccc(N2CCC3(CC2)CCN(Cc2cccc(C(F)(F)F)c2)c2ccccc2O3)nn1 [Compound 170, methyl 6-(5-(3-(trifluoromethyl)benzyl)-4,5-dihydro-3H-spiro-[benzo[b][1,4]oxazepine-2,4′-piperidine]-1′-yl)pyridazine-3-carboxylate] | 0.5 to 49
54 | CCc1ccc(CN2CCC3(CCN(c4ccc(C(=O)NCCC5CC5)nn4)CC3)Oc3ccccc32)cc1 [Compound 176] | 0.5 to 49

— US20120220567A1, “BENZO-FUSED OXAZEPINE COMPOUNDS AS STEAROYL-COENZYME A DELTA-9 DESATURASE INHIBITORS” (priority 2009, published 2012)
